From ChEMBL document CHEMBL1129818, “Discovery of anti-influenza A virus activity of a corynanthe-type indole alkaloid, hirsutine, in vitro and the structure-activity relationship of natural and synthetic analogs” (Bioorg Med Chem Lett, 1997) come the findings set out here.

SMILES strings stand for the structures. Values after ≈ are worked out from the molar mass of the structure shown. Values joined by “and” are separate entries in the source; they are usually repeats but may differ in a detail not shown here. Equal entries are not always repeated.

In assay [1] the test system is MDCK. Description: The compound was evaluated for inhibitory effect on the replication of influenza A subtype H2N2 murakami/4/64 strain in MDCK cells. It is filed as functional, cell-based. The following applies: Canis lupus familiaris.
Assay [2] concerns MDCK. Briefly: The compound was evaluated for cytotoxicity by MTT assay in MDCK cells. It is filed as functional. The settings on record: Canis lupus familiaris. For orientation: Tetrazolium assays rely on reduction of a dye to a coloured formazan, in cell work by metabolically active cells.
The test system of assay [3] is MDCK. Description: The compound was evaluated for inhibitory effect on the replication of influenza B Singapore/222/79 strain in MDCK cells. Type of assay: functional, cell-based. The settings on record: Canis lupus familiaris.
In assay [4] the test system is MDCK. Briefly: The compound was evaluated for inhibitory effect on the replication of influenza A subtype H2N2 Adachi/2/57 in MDCK cells. The following applies: Canis lupus familiaris. Type of assay: functional, cell-based.
Assay [5] concerns MDCK. Description: The compound was evaluated for inhibitory effect on the replication of influenza A subtype H1N1 PR8/34 strain in MDCK cells. Type of assay: functional, cell-based. The following applies: Canis lupus familiaris.
Assay [6] relates to MDCK. Briefly: The compound was evaluated for inhibitory effect on the replication of influenza A subtype H3N2 ishikawa/7/82 in MDCK cells. It is filed as functional, cell-based. The following applies: Canis lupus familiaris.
The nature of assay [7]: Selectivity index ratio of CC50 / EC50 was determined. Type of assay: functional.
Assay [8] relates to MDCK. Briefly: The compound was evaluated for inhibitory effect on the replication of influenza B norway/1/80 strain in MDCK cells. It is filed as functional, cell-based. The following applies: Canis lupus familiaris.
Assay [9] has as its system MDCK. Briefly: The compound was evaluated for inhibitory effect on the replication of influenza A subtype H1N1 Bangkok/10/83 strain in MDCK cells. The settings on record: Canis lupus familiaris. It is filed as functional, cell-based.
In assay [10] the test system is MDCK. Description: The compound was evaluated for inhibitory effect on the replication of influenza A subtype H3N2 Philippine/2/82 in MDCK cells. Type of assay: functional, cell-based. The settings on record: Canis lupus familiaris.
Assay [11] relates to MDCK. Briefly: The compound was evaluated for inhibitory effect on the replication of influenza A subtype H1N1 yamagata/120/86 strain in MDCK cells. Type of assay: functional, cell-based. The settings on record: Canis lupus familiaris.
Assay [12] concerns MDCK. Briefly: Cytotoxicity was measured by Anti-influenza A virus Ishikawa/7/82 in MDCK cells by MTT assay. It is filed as functional. The following applies: Canis lupus familiaris.
Assay [13] concerns MDCK. Briefly: Effective concentration required to determine Anti-influenza A virus Ishikawa/7/82 in MDCK cells by MTT assay. It is filed as functional, cell-based. The following applies: Canis lupus familiaris.
Assay [14] in a line: Selectivity index for effective concentration to that of Cytotoxicity in MDCK cells by MTT assay. Type of assay: functional.

One may read the EC50 as the concentration that produces a half-maximal response. Read a high EC50 as a need for much substance. One may read the CC50 as the concentration giving 50% cytotoxicity. Low values mean greater toxicity to the cells, high ones lower toxicity to the cells. Turning to `CC[C@H]1CN2CCc3c([nH]c4ccccc34)[C@H]2C[C@@H]1/C(=C\OC)C(=O)OC` [HIRSUTINE], the 50% effective concentration (EC50) is over 23.5 µg/mL in the assay on MDCK [1]; over 23.5 µg/mL with MDCK [3]; over 23.5 µg/mL in the assay on MDCK [4]; over 23.5 µg/mL in the assay on MDCK [5]; 0.4 µg/mL (≈ 1.09 µM) in the assay with MDCK [6]; over 23.5 µg/mL in the assay on MDCK [8]. In addition, the EC50 in the assay with MDCK [9] was over 23.5 µg/mL; with MDCK [10] it was 0.57 µg/mL (≈ 1.55 µM); in the assay with MDCK [11], over 23.5 µg/mL. The same molecule registered a CC50 in the assay on MDCK [2] of 23.5 µg/mL (≈ 63.8 µM). Besides, the Ratio in assay [7] is 58.8 and 41.2.

Molecule `CC[C@H]1CN2CCc3c([nH]c4ccccc34)[C@@H]2C[C@@H]1/C(=C/OC)C(=O)OC` [DIHYDROCORYNANTHEINE] had a CC50 in the assay with MDCK [12] of 86.3 µg/mL (≈ 234 µM). Besides, the EC50 with MDCK [13] is over 86.3 µg/mL.

As to `CC[C@H]1C[N+]2([O-])CCc3c([nH]c4ccccc34)[C@H]2C[C@@H]1/C(=C\OC)C(=O)OC` (some centres undefined), the CC50 in the assay with MDCK [12] is over 100 µg/mL. In [14], this molecule showed a Selectivity index of over 1.2. The molecule also gave a concentration for a half-maximal effect (EC50) in the assay with MDCK [13] of 86.4 µg/mL (≈ 225 µM).

In the assay with MDCK [12], `CC[C@@H]1CN2CCc3c([nH]c4ccccc34)[C@@H]2C[C@@H]1/C(=C\OC)C(=O)OC` [CORYNANRHEIDINE] returned a CC50 of 45.1 µg/mL (≈ 122 µM). Moreover, the 50% effective concentration (EC50) in the assay with MDCK [13] is over 45.1 µg/mL.

For the molecule `CC[C@H]1CN2CCc3c([nH]c4ccccc34)[C@H]2C[C@@H]1C(/C=N\C)=C(/O)OC`, the midpoint of cytotoxicity with MDCK [12], the CC50, lay at 3.9 µg/mL (≈ 10.6 µM). Also, the EC50 with MDCK [13] was over 3.9 µg/mL.

In the assay with MDCK [12], `C=CC1CN2CCc3c([nH]c4ccccc34)C2C[C@@H]1/C(=C\OC)C(=O)OC` (some centres undefined) had a cytotoxic concentration (CC50) of 25.2 µg/mL (≈ 68.8 µM). For the same molecule, the Selectivity index in assay [14] is 14. The same molecule returned an EC50 in the assay with MDCK [13] of 1.8 µg/mL (≈ 4.91 µM).

In the assay with MDCK [12], `CC[C@H]1CN2CCc3c([nH]c4ccccc34)[C@H]2C[C@@H]1/C(C=O)=C(/O)OC` had a CC50 of 8.4 µg/mL (≈ 23.7 µM). Besides, the EC50 with MDCK [13] is over 8.4 µg/mL.

In the assay on MDCK [12], `CC[C@H]1C[N+]2(C)CCc3c([nH]c4ccccc34)[C@H]2C[C@@H]1/C(=C\OC)C(=O)OC` (some centres undefined) displayed a half-maximal cytotoxic concentration (CC50) of over 100 µg/mL. In the assay on MDCK [13], this molecule gave an EC50 of over 100 µg/mL.

Regarding `CCO/C=C(\C(=O)OC)[C@H]1C[C@@H]2c3[nH]c4ccccc4c3CCN2C[C@@H]1CC`, the CC50 in the assay on MDCK [12] turned out to be 32.4 µg/mL (≈ 84.7 µM). The same molecule showed a Selectivity index in assay [14] of 36.4. In the assay with MDCK [13], this molecule displayed an EC50 of 0.9 µg/mL (≈ 2.35 µM).

On to `CC[C@H]1CN2CC[C@]3(O)C(=Nc4ccccc43)[C@H]2C[C@@H]1/C(=C\OC)C(=O)OC`, for which, in the assay with MDCK [12], the cytotoxic concentration (CC50) was over 100 µg/mL. Also, in the assay with MDCK [13], the EC50 is over 100 µg/mL.

On to `C=C(C(=O)OC)[C@H]1C[C@@H]2c3[nH]c4ccccc4c3CCN2C[C@@H]1CC`, for which, in the assay on MDCK [12], the midpoint of cytotoxicity, the CC50, lay at 62.1 µg/mL (≈ 183 µM). In the assay with MDCK [13], this molecule had an EC50 of over 62.1 µg/mL.

On to `CC[C@H]1CN2CCc3c([nH]c4cccc(OC)c34)[C@H]2C[C@@H]1/C(=C\OC)C(=O)OC`, for which the cytotoxic concentration (CC50) with MDCK [12] came to 40.7 µg/mL (≈ 102 µM). This molecule also yielded a Selectivity index in assay [14] of 76.8. In addition, the EC50 in the assay on MDCK [13] turned out to be 0.5 µg/mL (≈ 1.25 µM).

For the molecule `CC[C@H]1CN2Cc3c(nc4ccccc4c3O)[C@H]2C[C@@H]1/C(=C\OC)C(=O)OC`, the CC50 with MDCK [12] worked out at 38.1 µg/mL (≈ 99.6 µM). In the assay with MDCK [13], this molecule came in with a half-maximal effective concentration (EC50) of over 38.1 µg/mL.

Take `NC(=O)c1ncn([C@@H]2O[C@H](CO)[C@@H](O)[C@H]2O)n1` [RIBAVIRIN]: the concentration for a half-maximal effect (EC50) with MDCK [1] stood at 2.1 µg/mL (≈ 8.6 µM); with MDCK [3], 8.5 µg/mL (≈ 34.8 µM); with MDCK [4] it was 2.2 µg/mL (≈ 9.01 µM); in the assay on MDCK [5], 8.3 µg/mL (≈ 34 µM); with MDCK [6], 7.9 µg/mL (≈ 32.3 µM); in the assay with MDCK [8], 5.5 µg/mL (≈ 22.5 µM). The EC50 in the assay with MDCK [9] is 34.2 µg/mL (≈ 140 µM); in the assay with MDCK [10], 6.1 µg/mL (≈ 25 µM); in the assay on MDCK [11] it was 11.7 µg/mL (≈ 47.9 µM). This molecule also registered a half-maximal cytotoxic concentration (CC50) with MDCK [2] of over 100 µg/mL.

Molecule `CC[C@H]1CN2CCc3c(n(C)c4ccccc34)[C@H]2C[C@@H]1/C(=C\OC)C(=O)OC` displayed a half-maximal cytotoxic concentration (CC50) in the assay with MDCK [12] of 25.3 µg/mL (≈ 66.1 µM). The same molecule yielded a Selectivity index in assay [14] of 15.8. In addition, the EC50 in the assay with MDCK [13] was 1.7 µg/mL (≈ 4.44 µM).

Consider `CC[C@H]1CN2CCc3c([nH]c4ccccc34)[C@H]2C[C@@H]1/C(=C/OC)C(=O)O`, for which it took 39.2 µg/mL (≈ 111 µM) to reach half-maximal cytotoxicity in the assay on MDCK [12] (CC50). In the assay on MDCK [13], this molecule yielded a 50% effective concentration (EC50) of over 39.2 µg/mL.
